Numbers after ± are expanded uncertainties.
Key:
[1] = xn = mol fraction of the nth substance listed; settings: 101 kPa, Liquid, Vibrating tube method
[2] = 101 kPa, Liquid, Vibrating tube method

CCCCCCOS(=O)(=O)[O-].CC[n+]1ccn(C)c1 [3-ethyl-1-methyl-1H-imidazolium hexyl sulfate] + CCO
mass density [kg/m3], [1]
Settings	x1 = 0.0977	x1 = 0.2202	x1 = 0.3246	x1 = 0.4377	x1 = 0.4947	x1 = 0.6214	x1 = 0.7252	x1 = 0.7455	x1 = 0.9063	x1 = 1
288.15 K	911.2 ± 1	990 ± 1	1031.7 ± 1	1063.2 ± 1.1	1075.5 ± 1.1	1097.3 ± 1.1	1110.9 ± 1.2	1113.2 ± 1.2	1128.5 ± 1.3	1136.6 ± 1.4
298.15 K	903.4 ± 1	982.4 ± 1	1024.3 ± 1	1056 ± 1.1	1068.4 ± 1.1	1090.4 ± 1.1	1104.1 ± 1.2	1106.4 ± 1.2	1121.8 ± 1.3	1129.6 ± 1.4
308.15 K	895.3 ± 1	974.9 ± 1	1017.1 ± 1	1048.9 ± 1.1	1061.4 ± 1.1	1083.5 ± 1.1	1097.4 ± 1.2	1099.7 ± 1.2	1115.2 ± 1.3	1123.1 ± 1.4
318.15 K	887.4 ± 1	967.4 ± 1	1009.8 ± 1	1042 ± 1.1	1054.4 ± 1.1	1076.8 ± 1.1	1090.7 ± 1.2	1093 ± 1.2	1108.8 ± 1.3	1116.6 ± 1.4

CCCCCCOS(=O)(=O)[O-].CC[n+]1ccn(C)c1 [3-ethyl-1-methyl-1H-imidazolium hexyl sulfate] + O
mass density [kg/m3], [1]
Settings	x1 = 0.0501	x1 = 0.0965	x1 = 0.2075	x1 = 0.3982	x1 = 0.582	x1 = 0.7243	x1 = 0.7976	x1 = 0.9346	x1 = 1
288.15 K	1061.4 ± 1	1086.5 ± 1	1111.4 ± 1	1125.8 ± 1	1131.2 ± 1.1	1133.5 ± 1.2	1134.5 ± 1.2	1135.8 ± 1.3	1136.6 ± 1.4
298.15 K	1056 ± 1	1080.2 ± 1	1104.8 ± 1	1119 ± 1	1124.5 ± 1.1	1126.8 ± 1.1	1127.7 ± 1.2	1129 ± 1.3	1129.6 ± 1.4
308.15 K	1050.2 ± 1	1073.7 ± 1	1097.8 ± 1	1112.2 ± 1	1117.8 ± 1.1	1120.3 ± 1.1	1121.2 ± 1.2	1122.3 ± 1.3	1123.1 ± 1.4
318.15 K	1044.1 ± 1	1066.9 ± 1	1090.8 ± 1	1105.4 ± 1	1111.2 ± 1.1	1113.8 ± 1.1	1114.7 ± 1.2	1115.8 ± 1.3	1116.6 ± 1.4

CCCCOS(=O)(=O)[O-].CC[n+]1ccn(C)c1 [3-ethyl-1-methylimidazolium butyl sulfate]
[2]
Settings	mass density [kg/m3]
288.15 K	1182.5 ± 1.1
298.15 K	1175.7 ± 1.1
308.15 K	1169 ± 1.1
318.15 K	1162.4 ± 1.1

CCCCOS(=O)(=O)[O-].CC[n+]1ccn(C)c1 [3-ethyl-1-methylimidazolium butyl sulfate] + CCO
mass density [kg/m3], [1]
Settings	288.15 K	298.15 K	308.15 K	318.15 K
x1 = 0.0498	864.5 ± 1	856.2 ± 1	847.9 ± 1	839.5 ± 1
x1 = 0.0989	915.1 ± 1	907.1 ± 1	898.9 ± 1	890.9 ± 1
x1 = 0.1938	987 ± 1	979.3 ± 1	971.6 ± 1	963.8 ± 1
x1 = 0.2904	1037.4 ± 1	1030 ± 1	1022.4 ± 1	1014.8 ± 1
x1 = 0.3812	1072.1 ± 1	1064.8 ± 1	1057.6 ± 1	1050.4 ± 1
x1 = 0.4691	1098.2 ± 1	1091 ± 1	1083.9 ± 1	1076.9 ± 1
x1 = 0.4993	1105.9 ± 1	1098.8 ± 1	1091.1 ± 1	1083.7 ± 1
x1 = 0.5699	1122 ± 1	1114.9 ± 1	1107.9 ± 1	1101 ± 1
x1 = 0.6866	1143.7 ± 1	1136.7 ± 1	1129.7 ± 1	1122.8 ± 1
x1 = 0.7858	1158.4 ± 1	1151.6 ± 1	1144.7 ± 1	1138 ± 1
x1 = 0.8794	1169.9 ± 1	1163.1 ± 1	1156.3 ± 1	1149.6 ± 1
x1 = 1	1182.5 ± 1.1	1175.7 ± 1.1	1169 ± 1.1	1162.4 ± 1.1

CCCCOS(=O)(=O)[O-].CC[n+]1ccn(C)c1 [3-ethyl-1-methylimidazolium butyl sulfate] + O
mass density [kg/m3], [1]
Settings	288.15 K	298.15 K	308.15 K	318.15 K
x1 = 0.0526	1081 ± 1	1075.8 ± 1	1069.6 ± 1	1063.2 ± 1
x1 = 0.0987	1114.3 ± 1	1107.5 ± 1	1100.5 ± 1	1093.4 ± 1
x1 = 0.2007	1146.1 ± 1	1139.1 ± 1	1131.9 ± 1	1124.7 ± 1
x1 = 0.2973	1159.3 ± 1	1152.3 ± 1	1145.3 ± 1	1138.3 ± 1
x1 = 0.3957	1167.2 ± 1	1160.2 ± 1	1153.2 ± 1	1146.3 ± 1
x1 = 0.4866	1171.7 ± 1	1164.8 ± 1	1158 ± 1	1151.1 ± 1
x1 = 0.5868	1175 ± 1	1168.4 ± 1	1161.5 ± 1	1154.7 ± 1
x1 = 0.6909	1177.9 ± 1	1171.1 ± 1	1164.3 ± 1	1157.6 ± 1
x1 = 0.7872	1179.6 ± 1	1172.9 ± 1	1166.2 ± 1	1159.5 ± 1
x1 = 0.8922	1181.4 ± 1	1174.5 ± 1	1167.9 ± 1	1161.2 ± 1
x1 = 0.9416	1181.8 ± 1.1	1175 ± 1	1168.3 ± 1	1161.7 ± 1
x1 = 1	1182.5 ± 1.1	1175.7 ± 1.1	1169 ± 1.1	1162.4 ± 1.1

CCO [ethanol]
[2]
Settings	mass density [kg/m3]
288.15 K	794.4 ± 1
298.15 K	785.8 ± 1
308.15 K	777.1 ± 1
318.15 K	768.3 ± 1

CCO [ethanol] + CCOS(=O)(=O)[O-].CCn1cc[n+](C)c1
[1], x2 = 0
Settings	mass density [kg/m3]
288.15 K	794.4 ± 1
298.15 K	785.8 ± 1
308.15 K	777.1 ± 1
318.15 K	768.3 ± 1

O [water] + CCCCCCOS(=O)(=O)[O-].CC[n+]1ccn(C)c1
Settings	mass density [kg/m3]
[1], 308.15 K, x2 = 0	994.1 ± 1

O [water] + CCOS(=O)(=O)[O-].CCn1cc[n+](C)c1
Settings	mass density [kg/m3]
[1], 308.15 K, x2 = 0	994.1 ± 1
